From ChEMBL document CHEMBL5653631, “A Potent and Selective ULK1 Inhibitor Suppresses Autophagy and Sensitizes Cancer Cells to Nutrient Stress” (iScience, 2018)
One block for each molecule: values may come before it.

Assays:
[1] = target: Serine/threonine-protein kinase VRK2 (Homo sapiens) (UniProt Q86Y07); assay: Inhibition of human recombinant VRK2 at 500 nM in presence of ATP by radiometric assay relative to control
[2] = target: Tau-tubulin kinase 2 (Homo sapiens) (UniProt Q6IQ55); assay: Inhibition of human recombinant TTBK2 at 500 nM in presence of ATP by radiometric assay relative to control
Sequence of Tau-tubulin kinase 2 (Homo sapiens) (Q6IQ55 whole entry): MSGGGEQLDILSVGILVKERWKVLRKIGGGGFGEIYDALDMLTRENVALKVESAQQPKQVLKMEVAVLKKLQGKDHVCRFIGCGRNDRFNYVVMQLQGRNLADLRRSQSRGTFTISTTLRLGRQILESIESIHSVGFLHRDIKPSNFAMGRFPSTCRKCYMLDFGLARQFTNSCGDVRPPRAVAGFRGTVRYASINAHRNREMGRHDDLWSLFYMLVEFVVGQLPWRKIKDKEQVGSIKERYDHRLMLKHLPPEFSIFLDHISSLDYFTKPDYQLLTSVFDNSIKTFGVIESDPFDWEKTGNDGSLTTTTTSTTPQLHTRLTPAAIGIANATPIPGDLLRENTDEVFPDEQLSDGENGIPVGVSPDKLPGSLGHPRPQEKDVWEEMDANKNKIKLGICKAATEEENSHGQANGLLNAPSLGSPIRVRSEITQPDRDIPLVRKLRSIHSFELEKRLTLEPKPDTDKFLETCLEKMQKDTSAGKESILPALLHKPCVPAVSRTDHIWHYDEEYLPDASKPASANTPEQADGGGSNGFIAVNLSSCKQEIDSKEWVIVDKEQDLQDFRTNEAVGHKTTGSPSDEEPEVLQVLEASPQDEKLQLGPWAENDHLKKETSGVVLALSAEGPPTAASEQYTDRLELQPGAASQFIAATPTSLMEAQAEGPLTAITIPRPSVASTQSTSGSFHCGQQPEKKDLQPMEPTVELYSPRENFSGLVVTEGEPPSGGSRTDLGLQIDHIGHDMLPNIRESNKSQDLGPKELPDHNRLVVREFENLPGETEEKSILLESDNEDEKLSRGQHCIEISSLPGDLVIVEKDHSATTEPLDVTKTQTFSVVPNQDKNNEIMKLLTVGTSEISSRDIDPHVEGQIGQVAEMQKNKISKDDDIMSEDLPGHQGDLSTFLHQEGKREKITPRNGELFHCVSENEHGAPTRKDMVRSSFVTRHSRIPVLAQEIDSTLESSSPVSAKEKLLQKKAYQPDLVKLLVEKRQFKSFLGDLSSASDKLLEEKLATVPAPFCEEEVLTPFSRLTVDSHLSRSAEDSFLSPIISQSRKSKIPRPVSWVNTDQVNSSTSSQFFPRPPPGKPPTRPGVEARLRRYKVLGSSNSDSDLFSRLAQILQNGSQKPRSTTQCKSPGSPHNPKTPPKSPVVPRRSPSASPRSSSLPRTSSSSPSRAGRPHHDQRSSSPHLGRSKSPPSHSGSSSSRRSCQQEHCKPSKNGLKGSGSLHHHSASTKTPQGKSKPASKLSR

[3] = target: MAP kinase-activated protein kinase 3 (Homo sapiens) (UniProt Q16644); assay: Inhibition of human recombinant MAPKAPK3 at 500 nM in presence of ATP by radiometric assay relative to control
Sequence of MAP kinase-activated protein kinase 3 (Homo sapiens) (Q16644 whole entry, looked up): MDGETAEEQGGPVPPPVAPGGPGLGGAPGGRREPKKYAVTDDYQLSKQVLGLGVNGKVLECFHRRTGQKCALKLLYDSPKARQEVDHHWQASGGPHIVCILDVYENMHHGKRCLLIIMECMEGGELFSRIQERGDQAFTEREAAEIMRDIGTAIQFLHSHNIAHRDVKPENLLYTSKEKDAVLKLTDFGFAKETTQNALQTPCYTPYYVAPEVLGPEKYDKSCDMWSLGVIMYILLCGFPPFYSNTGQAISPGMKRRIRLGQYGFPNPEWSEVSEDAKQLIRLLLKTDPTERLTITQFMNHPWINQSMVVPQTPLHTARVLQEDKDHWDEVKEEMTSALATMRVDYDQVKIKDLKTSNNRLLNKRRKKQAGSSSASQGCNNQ

[4] = target: T1, Dual specificity mitogen-activated protein kinase kinase 6 (Homo sapiens) (UniProt P52564); assay: Inhibition of human recombinant MAP2K6 at 15 nM related to control ULK1
T1 sequence (whole entry): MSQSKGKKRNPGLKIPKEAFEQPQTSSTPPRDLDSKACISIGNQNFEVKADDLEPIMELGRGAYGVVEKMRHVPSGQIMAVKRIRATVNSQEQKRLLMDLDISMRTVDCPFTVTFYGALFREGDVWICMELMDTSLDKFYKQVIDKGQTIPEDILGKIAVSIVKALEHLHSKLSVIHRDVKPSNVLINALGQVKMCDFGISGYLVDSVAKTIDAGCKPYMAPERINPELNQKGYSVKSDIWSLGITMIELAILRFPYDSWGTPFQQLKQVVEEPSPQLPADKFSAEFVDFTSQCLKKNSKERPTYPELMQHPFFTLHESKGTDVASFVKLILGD

[5] = target: Eukaryotic translation initiation factor 2-alpha kinase 1 (Homo sapiens) (UniProt Q9BQI3); assay: Inhibition of human recombinant HRI at 40 nM related to control ULK1
Sequence of Eukaryotic translation initiation factor 2-alpha kinase 1 (Homo sapiens) (Q9BQI3 whole entry): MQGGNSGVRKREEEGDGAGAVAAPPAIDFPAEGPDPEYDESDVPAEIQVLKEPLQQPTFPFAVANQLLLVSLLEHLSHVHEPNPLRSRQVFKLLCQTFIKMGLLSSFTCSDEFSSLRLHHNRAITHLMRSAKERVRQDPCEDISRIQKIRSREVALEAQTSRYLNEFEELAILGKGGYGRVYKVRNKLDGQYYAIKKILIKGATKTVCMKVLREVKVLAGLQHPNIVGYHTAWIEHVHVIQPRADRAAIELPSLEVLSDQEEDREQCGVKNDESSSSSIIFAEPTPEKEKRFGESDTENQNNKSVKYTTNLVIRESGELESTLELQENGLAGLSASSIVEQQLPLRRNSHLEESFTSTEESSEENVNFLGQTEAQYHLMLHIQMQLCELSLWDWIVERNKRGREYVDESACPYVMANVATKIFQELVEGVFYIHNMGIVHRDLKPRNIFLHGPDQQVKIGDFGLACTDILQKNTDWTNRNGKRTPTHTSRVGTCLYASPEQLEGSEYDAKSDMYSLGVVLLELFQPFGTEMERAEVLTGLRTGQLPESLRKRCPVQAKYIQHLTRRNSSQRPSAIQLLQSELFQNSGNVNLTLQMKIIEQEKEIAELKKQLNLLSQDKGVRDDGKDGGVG

[6] = target: T2, Calcium/calmodulin-dependent protein kinase type IV (Homo sapiens) (UniProt Q16566); assay: Inhibition of human recombinant CaMK4 at 40 nM in presence of ATP by radiometric assay relative to control
T2 sequence (whole entry): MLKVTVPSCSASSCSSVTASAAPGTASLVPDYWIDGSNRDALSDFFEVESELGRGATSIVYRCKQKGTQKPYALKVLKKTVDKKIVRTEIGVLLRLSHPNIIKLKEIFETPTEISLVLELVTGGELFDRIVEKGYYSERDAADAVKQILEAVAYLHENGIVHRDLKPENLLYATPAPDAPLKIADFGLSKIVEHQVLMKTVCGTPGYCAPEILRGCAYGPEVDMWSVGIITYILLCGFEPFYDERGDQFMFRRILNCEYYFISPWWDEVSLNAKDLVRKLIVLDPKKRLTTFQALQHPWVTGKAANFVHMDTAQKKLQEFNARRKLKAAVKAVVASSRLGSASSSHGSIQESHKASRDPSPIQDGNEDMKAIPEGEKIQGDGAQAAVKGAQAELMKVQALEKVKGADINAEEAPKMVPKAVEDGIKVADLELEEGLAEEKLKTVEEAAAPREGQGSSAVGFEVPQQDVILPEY

[7] = target: T3, Cytoplasmic tyrosine-protein kinase BMX (Homo sapiens) (UniProt P51813); assay: Inhibition of human recombinant BMX at 40 nM related to control ULK1
T3 sequence (whole entry): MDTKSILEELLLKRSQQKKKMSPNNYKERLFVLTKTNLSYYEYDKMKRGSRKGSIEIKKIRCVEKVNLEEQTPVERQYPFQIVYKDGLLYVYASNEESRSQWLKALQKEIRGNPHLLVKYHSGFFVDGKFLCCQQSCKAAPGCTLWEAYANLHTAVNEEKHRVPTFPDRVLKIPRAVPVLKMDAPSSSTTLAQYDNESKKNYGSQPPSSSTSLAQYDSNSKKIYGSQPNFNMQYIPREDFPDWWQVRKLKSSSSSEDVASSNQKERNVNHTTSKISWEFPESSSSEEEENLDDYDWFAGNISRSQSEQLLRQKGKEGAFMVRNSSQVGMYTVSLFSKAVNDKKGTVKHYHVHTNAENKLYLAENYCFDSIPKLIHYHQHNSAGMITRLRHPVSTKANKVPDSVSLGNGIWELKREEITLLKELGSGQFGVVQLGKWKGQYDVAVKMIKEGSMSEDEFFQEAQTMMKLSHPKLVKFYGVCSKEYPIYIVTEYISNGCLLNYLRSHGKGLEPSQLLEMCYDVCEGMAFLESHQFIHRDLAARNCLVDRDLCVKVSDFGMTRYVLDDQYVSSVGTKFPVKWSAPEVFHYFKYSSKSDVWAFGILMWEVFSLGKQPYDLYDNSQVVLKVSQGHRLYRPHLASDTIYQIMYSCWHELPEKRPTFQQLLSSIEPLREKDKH

[8] = target: Serine/threonine-protein kinase PAK 5 (Homo sapiens) (UniProt Q9P286); assay: Inhibition of human recombinant PAK5 at 40 nM related to control ULK1
Sequence of Serine/threonine-protein kinase PAK 5 (Homo sapiens) (Q9P286 whole entry, looked up): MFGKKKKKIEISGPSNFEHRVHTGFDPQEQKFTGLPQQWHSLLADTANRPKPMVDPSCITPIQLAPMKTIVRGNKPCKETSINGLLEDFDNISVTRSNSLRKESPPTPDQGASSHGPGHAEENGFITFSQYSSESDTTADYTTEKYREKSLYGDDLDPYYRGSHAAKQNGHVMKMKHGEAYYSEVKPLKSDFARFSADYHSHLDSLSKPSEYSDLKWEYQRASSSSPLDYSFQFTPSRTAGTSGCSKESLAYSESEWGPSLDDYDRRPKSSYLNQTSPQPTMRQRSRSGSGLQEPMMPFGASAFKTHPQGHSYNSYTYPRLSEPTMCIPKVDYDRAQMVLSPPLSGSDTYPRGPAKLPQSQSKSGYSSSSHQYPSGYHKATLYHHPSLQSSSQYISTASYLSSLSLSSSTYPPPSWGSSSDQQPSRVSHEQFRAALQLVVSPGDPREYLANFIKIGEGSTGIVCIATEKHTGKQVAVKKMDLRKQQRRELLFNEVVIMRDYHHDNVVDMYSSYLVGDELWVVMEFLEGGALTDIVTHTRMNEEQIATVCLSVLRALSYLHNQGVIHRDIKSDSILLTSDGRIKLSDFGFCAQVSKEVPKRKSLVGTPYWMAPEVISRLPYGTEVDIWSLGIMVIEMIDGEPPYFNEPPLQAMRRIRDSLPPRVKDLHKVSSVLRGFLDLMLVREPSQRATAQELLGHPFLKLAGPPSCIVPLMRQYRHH

[9] = target: T4, Inhibitor of nuclear factor kappa-B kinase subunit beta (Homo sapiens) (UniProt O14920); assay: Inhibition of human recombinant IKKb at 40 nM in presence of ATP by radiometric assay relative to control
T4 sequence (whole entry): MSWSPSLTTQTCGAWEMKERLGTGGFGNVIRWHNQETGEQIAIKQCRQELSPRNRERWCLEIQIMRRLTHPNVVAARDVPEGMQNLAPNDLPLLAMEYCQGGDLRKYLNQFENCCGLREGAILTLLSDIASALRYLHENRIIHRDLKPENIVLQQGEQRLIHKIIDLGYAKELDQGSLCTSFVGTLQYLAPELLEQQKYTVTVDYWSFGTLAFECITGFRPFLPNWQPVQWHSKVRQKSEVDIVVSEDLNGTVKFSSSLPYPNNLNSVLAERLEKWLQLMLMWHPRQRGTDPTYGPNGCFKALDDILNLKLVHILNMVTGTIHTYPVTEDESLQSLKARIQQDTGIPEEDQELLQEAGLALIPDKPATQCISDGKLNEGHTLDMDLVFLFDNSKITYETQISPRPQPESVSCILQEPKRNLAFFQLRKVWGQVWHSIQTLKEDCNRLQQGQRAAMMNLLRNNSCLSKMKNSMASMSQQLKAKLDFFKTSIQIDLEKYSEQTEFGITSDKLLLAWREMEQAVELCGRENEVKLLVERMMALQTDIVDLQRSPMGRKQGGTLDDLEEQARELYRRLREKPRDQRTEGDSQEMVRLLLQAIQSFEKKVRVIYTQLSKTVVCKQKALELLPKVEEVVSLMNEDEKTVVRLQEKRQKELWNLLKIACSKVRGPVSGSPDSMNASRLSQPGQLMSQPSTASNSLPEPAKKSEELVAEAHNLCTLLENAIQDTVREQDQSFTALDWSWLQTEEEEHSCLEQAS

[10] = target: Ephrin type-A receptor 4 (Homo sapiens) (UniProt P54764); assay: Inhibition of human recombinant EphA4 at 40 nM related to control ULK1
Sequence of Ephrin type-A receptor 4 (Homo sapiens) (P54764 whole entry): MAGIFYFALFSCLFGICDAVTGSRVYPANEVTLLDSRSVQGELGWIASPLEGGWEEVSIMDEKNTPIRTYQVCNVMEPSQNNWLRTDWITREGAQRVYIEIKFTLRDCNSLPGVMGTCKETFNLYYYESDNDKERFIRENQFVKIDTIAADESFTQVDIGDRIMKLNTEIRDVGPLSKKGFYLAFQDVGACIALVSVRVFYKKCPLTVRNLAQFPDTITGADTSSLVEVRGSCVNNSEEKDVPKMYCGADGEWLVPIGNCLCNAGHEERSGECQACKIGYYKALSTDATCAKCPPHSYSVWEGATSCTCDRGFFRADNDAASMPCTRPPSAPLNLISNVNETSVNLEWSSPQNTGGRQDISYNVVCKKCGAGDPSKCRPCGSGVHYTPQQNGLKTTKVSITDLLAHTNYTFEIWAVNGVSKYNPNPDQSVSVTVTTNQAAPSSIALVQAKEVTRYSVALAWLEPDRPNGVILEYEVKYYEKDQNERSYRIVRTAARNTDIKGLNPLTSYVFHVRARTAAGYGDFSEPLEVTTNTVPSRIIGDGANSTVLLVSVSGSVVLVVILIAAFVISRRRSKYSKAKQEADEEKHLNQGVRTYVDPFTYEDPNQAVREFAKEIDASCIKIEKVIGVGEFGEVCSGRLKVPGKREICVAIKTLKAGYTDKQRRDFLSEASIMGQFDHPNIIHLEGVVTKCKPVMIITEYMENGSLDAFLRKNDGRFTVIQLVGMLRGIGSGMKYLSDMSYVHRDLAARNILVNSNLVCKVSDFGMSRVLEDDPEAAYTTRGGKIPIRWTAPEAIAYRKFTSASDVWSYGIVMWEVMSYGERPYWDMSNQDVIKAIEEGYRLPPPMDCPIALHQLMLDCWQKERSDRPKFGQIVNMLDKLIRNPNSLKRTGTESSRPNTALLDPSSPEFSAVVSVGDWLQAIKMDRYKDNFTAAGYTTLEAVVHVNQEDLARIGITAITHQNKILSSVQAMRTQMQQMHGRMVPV

Sequence of Serine/threonine-protein kinase VRK2 (Homo sapiens) (Q86Y07 whole entry): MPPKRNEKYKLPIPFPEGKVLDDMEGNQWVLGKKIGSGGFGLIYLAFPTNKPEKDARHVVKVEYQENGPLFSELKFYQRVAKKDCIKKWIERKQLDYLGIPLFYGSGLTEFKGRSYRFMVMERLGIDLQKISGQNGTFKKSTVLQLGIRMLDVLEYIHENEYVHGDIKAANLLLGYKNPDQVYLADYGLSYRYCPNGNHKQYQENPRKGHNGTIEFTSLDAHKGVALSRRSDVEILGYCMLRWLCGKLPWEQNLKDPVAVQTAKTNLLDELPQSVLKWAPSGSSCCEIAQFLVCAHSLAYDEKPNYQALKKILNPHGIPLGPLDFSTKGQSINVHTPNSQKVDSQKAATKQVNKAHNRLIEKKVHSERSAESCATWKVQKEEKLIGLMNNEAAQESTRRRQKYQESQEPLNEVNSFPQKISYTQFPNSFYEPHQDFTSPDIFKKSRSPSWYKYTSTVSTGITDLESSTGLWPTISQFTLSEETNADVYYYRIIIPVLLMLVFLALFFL

inhibition [1]: 23% | inhibition [2]: 6% | inhibition [3]: 0%
Compound: CNC(=O)c1ccccc1Oc1nc(Nc2cc(OC)c(OC)c(OC)c2)ncc1Br

fold change (FC) [4]: 0.06
Compound: CC(C)[C@H](NC(=O)c1cc(-c2cnn3cc(-c4ccc(OCCN5CCCCC5)cc4)cnc23)cs1)C(F)(F)F

fold change (FC) [5]: 0.01 | inhibition [6]: 0% | fold change (FC) [7]: 0.05 | fold change (FC) [8]: 0 | inhibition [9]: 0% | fold change (FC) [10]: 0
Compound: O=C(N[C@@H](C1CC1)C(F)(F)F)c1cc(-c2cnn3cc(-c4ccc(F)cc4)cnc23)cs1
